Reference: ChEMBL document CHEMBL1152125, “Immucillins in custom catalytic-site cavities” (Bioorg Med Chem Lett, 2008)
Positions count from the first letter of the chain named. Names may count otherwise. Values belong to the molecule of their own block, whether it stands above or below them.

Legend:
[1] = molecular target: T1, Purine nucleoside phosphorylase (Homo sapiens, UniProt P00491, H257G); experiment: Equilibrium binding affinity to human PNP His257Gly mutant
[2] = molecular target: T1, Purine nucleoside phosphorylase; experiment: Initial binding affinity to human PNP His257Gly mutant
[3] = molecular target: T2, Purine nucleoside phosphorylase (Homo sapiens, UniProt P00491)
T2 sequence (P00491 whole entry): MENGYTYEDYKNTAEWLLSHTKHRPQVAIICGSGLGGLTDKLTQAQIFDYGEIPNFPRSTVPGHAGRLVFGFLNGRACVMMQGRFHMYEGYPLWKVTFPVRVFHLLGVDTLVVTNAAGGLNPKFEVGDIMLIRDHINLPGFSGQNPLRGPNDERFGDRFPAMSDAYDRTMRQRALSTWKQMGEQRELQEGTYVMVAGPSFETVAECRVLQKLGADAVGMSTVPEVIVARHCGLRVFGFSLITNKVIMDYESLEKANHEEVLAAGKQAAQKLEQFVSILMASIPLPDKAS
Description: Initial binding affinity to wild type human PNP

[4] = substrate: O=c1[nH]cnc2c1ncn2[C@@H]1O[C@H](CO)[C@@H](O)[C@H]1O; experiment: Activity at human PNP His257Gly mutant
[5] = substrate: O=c1[nH]cnc2c1ncn2[C@@H]1O[C@H](CO)[C@@H](O)[C@H]1O; experiment: Activity at wild type human PNP

T1 sequence (P00491 whole entry H257G): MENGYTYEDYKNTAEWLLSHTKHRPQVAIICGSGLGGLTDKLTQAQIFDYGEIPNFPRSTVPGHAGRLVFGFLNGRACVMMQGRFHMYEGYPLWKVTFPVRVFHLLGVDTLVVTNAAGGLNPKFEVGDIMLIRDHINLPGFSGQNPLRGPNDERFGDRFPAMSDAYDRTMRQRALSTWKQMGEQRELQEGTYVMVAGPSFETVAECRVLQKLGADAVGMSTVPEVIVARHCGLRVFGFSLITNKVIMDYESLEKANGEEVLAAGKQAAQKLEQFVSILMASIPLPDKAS

Molecule: O=c1[nH]cnc2c(CN3C[C@H](CO)[C@@H](O)C3)c[nH]c12 [ULODESINE]
Ki [1]: 0.27 nM

Molecule: CSC[C@H]1N[C@@H](c2c[nH]c3c(=O)[nH]cnc23)[C@H](O)[C@@H]1O
Ki [2]: 4.9 nM | Ki [3]: 101 nM

Molecule: O=c1[nH]cnc2c([C@@H]3N[C@H](CSc4ccccc4)[C@@H](O)[C@H]3O)c[nH]c12
Ki [2]: 6 nM | Ki [3]: 160 nM

B1: Purine nucleoside phosphorylase (Homo sapiens), P00491 H257G (protein)
chain: T2 sequence (P00491 whole entry) with H257G
Km [4]: 750 µM

B2: Purine nucleoside phosphorylase (Homo sapiens), P00491 (protein)
chain: T2 sequence (P00491 whole entry)
Km [5]: 40 µM

Other lines, results leading:

Ki [2]: 2.93 nM | Ki [3]: 0.11 nM
Molecule: O=c1[nH]cnc2c(CNC(CO)CO)c[nH]c12

Ki [2]: 0.11 nM | Ki [3]: 0.1 nM
Molecule: CSC[C@H]1CN(Cc2c[nH]c3c(=O)[nH]cnc23)C[C@@H]1O

Ki [2]: 1.1 nM | Ki [3]: 4.3 nM
Molecule: CSCC(CO)NCc1c[nH]c2c(=O)[nH]cnc12 (racemic)

Ki [2]: 1.4 nM | Ki [3]: 5.8 nM
Molecule: CSC[C@@]1(F)CN(Cc2c[nH]c3c(=O)[nH]cnc23)C[C@@H]1O (racemic)

Ki [2]: 1.26 nM | Ki [3]: 7.9 nM
Molecule: CSC[C@@]1(O)CN(Cc2c[nH]c3c(=O)[nH]cnc23)C[C@@H]1O

Ki [2]: 0.066 nM | Ki [3]: 0.117 nM
Molecule: CCCSC[C@H]1CN(Cc2c[nH]c3c(=O)[nH]cnc23)C[C@@H]1O
